Results: patent US20110092547A1 (priority 2007, published 2011)

target: T1, human DGAT1 (Homo sapiens, UniProt O75907); assay: Human enzyme assay, further developed assay (14C oleoyl CoA, 96 well plate); assay type: biochemical; conditions: human DGAT1 expressed in insect cell (sf9) membranes
T1 construct: made in house; host or cells: Sf9 insect cells (recombinant baculovirus); membrane fraction
T1 sequence (O75907 1-488): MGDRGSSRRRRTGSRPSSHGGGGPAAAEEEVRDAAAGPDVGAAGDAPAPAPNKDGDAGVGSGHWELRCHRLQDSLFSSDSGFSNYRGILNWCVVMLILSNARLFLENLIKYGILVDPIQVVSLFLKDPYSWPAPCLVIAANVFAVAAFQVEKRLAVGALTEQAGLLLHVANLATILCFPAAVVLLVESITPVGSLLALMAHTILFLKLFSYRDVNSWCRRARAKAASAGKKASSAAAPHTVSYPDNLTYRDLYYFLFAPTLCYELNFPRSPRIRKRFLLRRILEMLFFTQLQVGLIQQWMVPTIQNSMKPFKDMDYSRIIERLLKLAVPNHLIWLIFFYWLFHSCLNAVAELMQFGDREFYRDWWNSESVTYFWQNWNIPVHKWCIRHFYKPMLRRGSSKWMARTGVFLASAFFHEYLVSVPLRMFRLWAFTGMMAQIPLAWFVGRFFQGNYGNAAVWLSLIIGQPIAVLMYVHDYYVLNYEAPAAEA
Procedure: The in vitro assay to identify DGAT1 inhibitors uses human DGAT1 expressed in insect cell membranes as the enzyme source (Proc. Natl. Acad. Sci. 1998, 95, 13018-13023). Briefly, sf9 cells were infected with recombinant baculovirus containing human DGAT1 coding sequences and harvested after 48 h. Cells were lysed by sonication and membranes isolated by centrifuging at 28000 rpm for 1 h at 4° C. on a 41% sucrose gradient. The membrane fraction at the interphase was collected, washed, and stored in liquid nitrogen.
In a further developed assay, DGAT1 activity was assayed by a modification of the method described by Coleman (Methods in Enzymology 1992, 209, 98-102). Compound at 0.00003-10 μM (final cone) was incubated with 25 μg/ml (final cone) membrane protein, 5 mM MgCl2, and 100 μM 1,2 dioleoyl-sn-glycerol in a total assay volume of 200 μl in a 96 well plate. The reaction was started by adding ^14C oleoyl coenzyme A (30 μM final concentration) and incubated at room temperature for 30 minutes. The reaction was stopped by adding 300 μl 2-propanol:heptane 7:1. Radioactive triolein product was separated into the organic phase by adding 200 μl heptane and 200 μl 0.1 M carbonate buffer pH 9.5. DGAT1 activity was quantified by counting aliquots of the upper heptane layer by liquid scintillography.

Compound | IC50 [nM]
CS(=O)(=O)NC(=O)[C@H]1CC[C@@H](Oc2ccc(NC(=O)c3nnc(Nc4ccc(F)c(F)c4)o3)cn2)CC1 [Example 45, 5-(3,4-Difluorophenylamino)-N-(6-((1s,4s)-4-(methylsulfonylcarbamoyl)cyclohexyloxy)pyridin-3-yl)-1,3,4-oxadiazole-2-carboxamide] | 6.4
O=C(Nc1ccc(O[C@H]2CC[C@H](C(=O)O)CC2)nc1)c1nnc(Nc2ccc(OC(F)(F)F)cc2)o1 [Example 25, (1r,4r)-4-(5-(5-(4-(trifluoro-methoxy)phenylamino)-1,3,4-oxadiazole-2-carboxamido)pyridin-2-yloxy)cyclo-hexane-carboxylic acid] | 52
O=C(Nc1ccc(O[C@H]2CC[C@@H](C(=O)O)CC2)nc1)c1nnc(Nc2ccc(F)c(C(F)(F)F)c2)o1 [Example 8, (1s,4s)-4-(5-(5-(4-fluoro-3-(trifluoromethyl)phenylamino)-1,3,4-oxadiazole-2-carboxamido)pyridin-2-yloxy)cyclohexanecarboxylic acid] | 10
O=C(O)C[C@H]1CC[C@@H](Oc2ccc(NC(=O)c3nnc(Nc4ccc(F)c(Cl)c4)o3)cn2)CC1 [Example 53, 2-((1s,4s)-4-(5-(5-(3-Chloro-4-fluorophenylamino)-1,3,4-oxadiazole-2-carboxamido)pyridin-2-yloxy)cyclohexyl)acetic acid] | 3.1
O=C(Nc1ccc(O[C@H]2CC[C@H](C(=O)O)CC2)nc1)c1nnc(Nc2ccc(F)c(Cl)c2)o1 [Example 24, (1r,4r)-4-(5-(5-(3-chloro-4-fluoro-phenylamino)-1,3,4-oxadiazole-2-carboxamido)pyridin-2-yloxy)cyclo-hexane-carboxylic acid] | 20
O=C(Nc1ccc(O[C@H]2CC[C@@H](C(=O)O)CC2)nc1)c1nnc(Nc2ccc(Cl)cc2Cl)o1 [Example 12, (1s,4s)-4-(5-(5-(2,4-dichlorophenylamino)-1,3,4-oxadiazole-2-carboxamido)pyridin-2-yloxy)cyclohexanecarboxylic acid] | 7.4
Cc1cc(O[C@H]2CC[C@@H](C(=O)O)CC2)ncc1NC(=O)c1nnc(Nc2ccc(F)c(F)c2)o1 [Example 40, (1s,4s)-4-(5-(5-(3,4-Difluorophenylamino)-1,3,4-oxadiazole-2-carboxamido)-4-methylpyridin-2-yloxy)cyclohexanecarboxylic acid] | 3.5
COc1cc(NC(=O)c2nnc(Nc3ccc(F)c(F)c3)o2)cnc1O[C@H]1CC[C@@H](C(=O)O)CC1 [Example 57, (1s,4s)-4-(5-(5-(3,4-Difluorophenylamino)-1,3,4-oxadiazole-2-carboxamido)-3-methoxypyridin-2-yloxy)cyclohexanecarboxylic acid] | 410
O=C(Nc1cnc(O[C@H]2CC[C@@H](C(=O)O)CC2)cc1F)c1nnc(Nc2ccc(F)c(F)c2)o1 [Example 59, (1s,4s)-4-(5-(5-(3,4-Difluorophenylamino)-1,3,4-oxadiazole-2-carboxamido)-4-fluoropyridin-2-yloxy)cyclohexanecarboxylic acid] | 8.6
COc1nc(O[C@H]2CC[C@@H](C(=O)O)CC2)ccc1NC(=O)c1nnc(Nc2ccc(F)c(F)c2)o1 [Example 51, (1s,4s)-4-(5-(5-(3,4-Difluorophenylamino)-1,3,4-oxadiazole-2-carboxamido)-6-methoxypyridin-2-yloxy)cyclohexanecarboxylic acid] | 29
O=C(Nc1ccc(O[C@H]2CC[C@H](C(=O)O)CC2)nc1)c1nnc(Nc2ccc(Br)cc2Cl)o1 [Example 33, (1r,4r)-4-(5-(5-(4-bromo-2-chloro-phenylamino)-1,3,4-oxadiazole-2-carboxamido)pyridin-2-yloxy)cyclo-hexane-carboxylic acid] | 22
O=C(Nc1ccc(O[C@H]2CC[C@@H](C(=O)O)CC2)nc1)c1nnc(Nc2ccc(F)c(F)c2)o1 [Example 1, cis-4-[5-[[5-[(3,4-Difluorophenyl)amino]-1,3,4-oxadiazole-2-carbonyl]amino]pyridin-2-yl]oxycyclohexane-1-carboxylic acid] | 11
O=C(O)c1ccc(Oc2ccc(NC(=O)c3nnc(Nc4ccc(F)c(Cl)c4)o3)cn2)cc1 [Example 39, 4-(5-(5-(3-Chloro-4-fluorophenylamino)-1,3,4-oxadiazole-2-carboxamido)pyridin-2-yloxy)benzoic acid] | 7.5
Cc1nc(O[C@H]2CC[C@@H](C(=O)O)CC2)ccc1NC(=O)c1nnc(Nc2ccc(F)c(F)c2)o1 [Example 62, (1s,4s)-4-(5-(5-(3,4-Difluorophenylamino)-1,3,4-oxadiazole-2-carboxamido)-6-methylpyridin-2-yloxy)cyclohexanecarboxylic acid] | 58
O=C(Nc1cnc(O[C@H]2CC[C@@H](C(=O)O)CC2)cc1F)c1nnc(Nc2cc(F)c(F)cc2F)o1 [Example 58, (1s,4s)-4-(4-Fluoro-5-(5-(2,4,5-trifluorophenylamino)-1,3,4-oxadiazole-2-carboxamido)pyridin-2-yloxy)cyclohexanecarboxylic acid] | 6.1
O=C(Nc1ccc(O[C@H]2CC[C@H](C(=O)O)CC2)nc1)c1nnc(Nc2cc(F)c(F)cc2F)o1 [Example 22, (1r,4r)-4-(5-(5-(2,4,5-trifluorophenylamino)-1,3,4-oxadiazole-2-carboxamido)pyridin-2-yloxy)cyclohexanecarboxylic acid] | 36
O=C(Nc1ccc(O[C@H]2CC[C@H](C(=O)O)CC2)nc1)c1nnc(Nc2ccc(F)c(C(F)(F)F)c2)o1 [Example 29, (1r,4r)-4-(5-(5-(4-fluoro-3-(trifluoro-methyl)phenylamino)-1,3,4-oxadiazole-2-carboxamido)pyridin-2-yloxy)cyclo-hexane-carboxylic acid] | 25
O=C(O)C[C@H]1CC[C@H](Oc2ccc(NC(=O)c3nnc(Nc4ccc(F)c(F)c4)o3)cn2)CC1 [Example 37, 2-((1r,4r)-4-(5-(5-(3,4-difluorophenylamino)-1,3,4-oxadiazole-2-carboxamido)pyridin-2-yloxy)cyclohexyl)acetic acid] | 18
O=C(Nc1ccc(O[C@H]2CC[C@H](C(=O)O)CC2)nc1)c1nnc(Nc2cccc(Cl)c2)o1 [Example 27, (1r,4r)-4-(5-(5-(3-chloro-phenylamino)-1,3,4-oxadiazole-2-carboxamido)pyridin-2-yloxy)cyclo-hexane-carboxylic acid] | 19
O=C(Nc1ccc(O[C@H]2CC[C@H](C(=O)O)CC2)nc1)c1nnc(Nc2ccc(F)c(F)c2)o1 [Example 32, (1r,4r)-4-(5-(5-(3,4-difluoro-phenylamino)-1,3,4-oxadiazole-2-carboxamido)pyridin-2-yloxy)cyclo-hexane-carboxylic acid] | 26
O=C(Nc1ccc(O[C@H]2CC[C@@H](C(=O)O)CC2)nc1)c1nnc(Nc2ccc(F)c(Cl)c2)o1 [Example 16, (1s,4s)-4-(5-(5-(3-chloro-4-fluorophenylamino)-1,1,4-oxadiazole-2-carboxamido)pyridin-2-yloxy)cyclohexanecarboxylic acid] | 3.8
